Measurements reported in PubChem BioAssay AID256 (DTP/NCI, 2004).
Several values for one entry are separate records, joined by “and”; a condition that tells them apart may be missing. Equal entries are not always repeated. Inconclusive results and toxic doses are left out. Rule for the calls: active = survival T/C of 150% or more; inactive = T/C below 125% in these data.

Tested on: CD2F1 mice, L1210 leukemia ip, survival T/C
Experiment: NCI In Vivo Anticancer Drug Screen. Data for tumor model L1210 Leukemia (intraperitoneal) in CD2F1 (CDF1) mice
Conditions: higher = longer survival
Summary of the method: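 Implant tumor; dose compound or vehicle; measure endpoint in both groups; report treated divided by control.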

[1] = endpoint: mean survival time, dose: 12.5 mg/kg/injection, schedule: Q01DX009 (ip), vehicle: saline with Tween-80
[2] = endpoint: mean survival time, dose: 25.0 mg/kg/injection, schedule: Q01DX009 (ip), vehicle: saline with Tween-80
[3] = endpoint: mean survival time, dose: 50.0 mg/kg/injection, schedule: Q01DX009 (ip), vehicle: saline with Tween-80
[4] = endpoint: mean survival time, dose: 100.0 mg/kg/injection, schedule: Q01DX009 (ip), vehicle: saline with Tween-80
[5] = endpoint: mean survival time, dose: 100.0 mg/kg/injection, schedule: Q04DX003 (ip), vehicle: saline with Tween-80
[6] = endpoint: mean survival time, dose: 200.0 mg/kg/injection, schedule: Q01DX009 (ip), vehicle: saline with Tween-80
[7] = endpoint: mean survival time, dose: 200.0 mg/kg/injection, schedule: Q04DX003 (ip), vehicle: saline with Tween-80
[8] = endpoint: mean survival time, dose: 400.0 mg/kg/injection, schedule: Q01DX009 (ip), vehicle: saline with Tween-80
[9] = endpoint: mean survival time, dose: 400.0 mg/kg/injection, schedule: Q04DX003 (ip), vehicle: saline with Tween-80
[10] = endpoint: mean survival time, dose: 100.0 mg/kg/injection, schedule: Q04DX002 (ip), vehicle: saline with Tween-80
[11] = endpoint: mean survival time, dose: 200.0 mg/kg/injection, schedule: Q04DX002 (ip), vehicle: saline with Tween-80
[12] = endpoint: mean survival time, dose: 400.0 mg/kg/injection, schedule: Q04DX002 (ip), vehicle: saline with Tween-80
[13] = endpoint: mean survival time, dose: 100.0 mg/kg/injection, schedule: Q04DX003 (ip), vehicle: saline
[14] = endpoint: mean survival time, dose: 200.0 mg/kg/injection, schedule: Q04DX003 (ip), vehicle: saline
[15] = endpoint: mean survival time, dose: 400.0 mg/kg/injection, schedule: Q04DX003 (ip), vehicle: saline
[16] = endpoint: mean survival time, dose: 50.0 mg/kg/injection, schedule: Q01DX009 (ip), vehicle: saline
[17] = endpoint: mean survival time, dose: 100.0 mg/kg/injection, schedule: Q01DX009 (ip), vehicle: saline
[18] = endpoint: mean survival time, dose: 200.0 mg/kg/injection, schedule: Q01DX009 (ip), vehicle: saline
[19] = endpoint: mean survival time, dose: 400.0 mg/kg/injection, schedule: Q01DX009 (ip), vehicle: saline

Measured: T/C

c1cc2c(cc1-c1nnc(-c3ccc4c(c3)OCO4)nn1)OCO2
inactive: endpoint: mean survival time, dose: 12.5 mg/kg/injection, schedule: Q01DX001 (ip), vehicle: saline with Tween-80 91 % of control | [1] 94 % of control | endpoint: mean survival time, dose: 25.0 mg/kg/injection, schedule: Q01DX001 (ip), vehicle: saline with Tween-80 90 % of control | [2] 96 % of control | endpoint: mean survival time, dose: 50.0 mg/kg/injection, schedule: Q01DX001 (ip), vehicle: saline with Tween-80 95 % of control | [3] 88 % of control

COc1ccc([N+]2=Cc3cc(OC)c(OC)cc3CC2)cc1OC
inactive: endpoint: mean survival time, dose: 12.5 mg/kg/injection, schedule: Q01DX009 (ip), vehicle: water 89 % of control | endpoint: mean survival time, dose: 25.0 mg/kg/injection, schedule: Q01DX009 (ip), vehicle: water 94 % of control | endpoint: mean survival time, dose: 50.0 mg/kg/injection, schedule: Q01DX009 (ip), vehicle: water 97 % of control | endpoint: mean survival time, dose: 100.0 mg/kg/injection, schedule: Q01DX009 (ip), vehicle: water 91 % of control

NC(=O)CC(C1SCCCS1)N1C(=O)OC2C(O)C(CO)OC21 (stereo unspecified)
inactive: endpoint: mean survival time, dose: 10.94 mg/kg/injection, schedule: Q01DX005 (ip), vehicle: water 100 % of control | endpoint: mean survival time, dose: 21.88 mg/kg/injection, schedule: Q01DX005 (ip), vehicle: water 93 % of control | endpoint: mean survival time, dose: 43.75 mg/kg/injection, schedule: Q01DX005 (ip), vehicle: water 98 % of control | endpoint: mean survival time, dose: 87.5 mg/kg/injection, schedule: Q01DX005 (ip), vehicle: water 100 % of control | endpoint: mean survival time, dose: 175.0 mg/kg/injection, schedule: Q01DX005 (ip), vehicle: water 90 % of control

COc1cc2ccc(CC(=S)N3CCOCC3)cc2cc1OC
inactive: [4] 98 % of control | [5] 104 % of control | [6] 93 % of control | [7] 95 % of control | [8] 96 % of control

COC(=O)c1cc(I)ccc1O
inactive: [4] 107 % of control | [5] 103 % of control | [6] 109 % of control | [7] 100 % of control | [8] 103 % of control | [9] 100 % of control

C=C(NC(=O)CN)C(=O)O
inactive: [10] 100 % of control | [11] 95 % of control | [12] 95 % of control

CC(=O)NC/C(Cl)=C/Cl
inactive: [5] 99 % of control | [7] 96 % of control | [9] 88 % of control

O=C1/C(=C/c2ccccc2[N+](=O)[O-])Cc2ccccc21
inactive: endpoint: mean survival time, dose: 100.0 mg/kg/injection, schedule: Q04DX003 (ip), vehicle: Klucel (hydroxypropylcellulose) (HPC) 100 % of control | endpoint: mean survival time, dose: 200.0 mg/kg/injection, schedule: Q04DX003 (ip), vehicle: Klucel (hydroxypropylcellulose) (HPC) 100 % of control | endpoint: mean survival time, dose: 400.0 mg/kg/injection, schedule: Q04DX003 (ip), vehicle: Klucel (hydroxypropylcellulose) (HPC) 103 % of control

C/C=C(/CCCCC)C(=O)OCC
inactive: [4] 106 % of control | [6] 100 % of control | [8] 101 % of control

C=C(C)C12OC3(CCCCCCCCC)OC1C1C4OC4(COC(=O)CCCCCCCCCCCCCCC)C(O)C4(O)C(=O)C(C)=CC4C1(O3)C(C)C2OC(=O)c1ccccc1 (stereo unspecified)
inactive: endpoint: mean survival time, dose: 5.0 micrograms/kg/injection, schedule: Q01DX009 (ip), vehicle: saline + alcohol 97 % of control | endpoint: mean survival time, dose: 10.0 micrograms/kg/injection, schedule: Q01DX009 (ip), vehicle: saline + alcohol 117 % of control | endpoint: mean survival time, dose: 20.0 micrograms/kg/injection, schedule: Q01DX009 (ip), vehicle: saline + alcohol 105 % of control | endpoint: mean survival time, dose: 40.0 micrograms/kg/injection, schedule: Q01DX009 (ip), vehicle: saline + alcohol 112 % of control

CC1C=CCC2C(=O)OC(=O)C12 (stereo unspecified)
inactive: [13] 94 % of control | [14] 95 % of control | [15] 101 % of control

NC(=O)c1c[nH]n(C2OC(CO)C(O)C2O)c1=O (stereo unspecified)
inactive: endpoint: median survival time, dose: 49.9 mg/kg/injection, schedule: Q01DX005 (ip), vehicle: saline 100 % of control | endpoint: median survival time, dose: 99.8 mg/kg/injection, schedule: Q01DX005 (ip), vehicle: saline 94 % of control | endpoint: median survival time, dose: 199.6 mg/kg/injection, schedule: Q01DX005 (ip), vehicle: saline 94 % of control

O=S(=O)(Nc1ccc2c3c(cccc13)C=C2)c1ccccc1
inactive: [5] 98 % of control | [7] 98 % of control | [9] 98 % of control

CCCCCCC(C)Oc1ccccc1Cl (stereo unspecified)
inactive: [10] 107 % of control | [11] 86 % of control | [12] 96 % of control

CCOC(=O)C12CC=CC(CCC1)/C2=N\Nc1ccccc1 (stereo unspecified)
inactive: [4] 108 % of control | [5] 105 % of control | [6] 103 % of control | [7] 103 % of control | [8] 103 % of control | [9] 92 % of control

COC(=O)c1cc(NC(C)=O)ccc1S(=O)(=O)c1ccc(NC(C)=O)cc1C(=O)OC
inactive: [5] 101 % of control | [7] 101 % of control | [9] 97 % of control

[NH-]C(CCC(N)=O)C(=O)O.[NH-]C(CCC(N)=O)C(=O)O.[Pt+2] (stereo unspecified)
inactive: endpoint: mean survival time, dose: 3.13 mg/kg/injection, schedule: Q04DX003 (ip), vehicle: distilled water + Tween-80 103 % of control | endpoint: mean survival time, dose: 6.25 mg/kg/injection, schedule: Q04DX003 (ip), vehicle: distilled water + Tween-80 104 % of control | endpoint: mean survival time, dose: 12.5 mg/kg/injection, schedule: Q04DX003 (ip), vehicle: distilled water + Tween-80 110 % of control | endpoint: mean survival time, dose: 25.0 mg/kg/injection, schedule: Q04DX003 (ip), vehicle: distilled water + Tween-80 110 % of control | endpoint: mean survival time, dose: 50.0 mg/kg/injection, schedule: Q04DX003 (ip), vehicle: distilled water + Tween-80 95 % of control | endpoint: mean survival time, dose: 100.0 mg/kg/injection, schedule: Q04DX003 (ip), vehicle: distilled water + Tween-80 104 % of control | endpoint: mean survival time, dose: 200.0 mg/kg/injection, schedule: Q04DX003 (ip), vehicle: distilled water + Tween-80 98 % of control

CCCCSc1cc(C)nc2ccccc12
inactive: [10] 96 % of control

CCOC(=O)CNC(=O)Sc1ccc(C(C)(C)C)cc1
inactive: endpoint: mean survival time, dose: 12.5 mg/kg/injection, schedule: Q01DX009 (ip), vehicle: Klucel (hydroxypropylcellulose) (HPC) 96 % of control and 105 % of control | endpoint: mean survival time, dose: 25.0 mg/kg/injection, schedule: Q01DX009 (ip), vehicle: Klucel (hydroxypropylcellulose) (HPC) 101 % of control and 105 % of control | endpoint: mean survival time, dose: 50.0 mg/kg/injection, schedule: Q01DX009 (ip), vehicle: Klucel (hydroxypropylcellulose) (HPC) 101 % of control and 102 % of control | endpoint: mean survival time, dose: 100.0 mg/kg/injection, schedule: Q01DX009 (ip), vehicle: Klucel (hydroxypropylcellulose) (HPC) 100 % of control and 105 % of control | endpoint: mean survival time, dose: 200.0 mg/kg/injection, schedule: Q01DX009 (ip), vehicle: Klucel (hydroxypropylcellulose) (HPC) 100 % of control and 103 % of control | endpoint: mean survival time, dose: 400.0 mg/kg/injection, schedule: Q01DX009 (ip), vehicle: Klucel (hydroxypropylcellulose) (HPC) 97 % of control

CC1(C)N=C(N)N=C(N)N1c1ccc(OCC(=O)Nc2ccc(S(=O)(=O)F)cc2)cc1
inactive: [16] 111 % of control | [17] 109 % of control | [18] 115 % of control | endpoint: mean survival time, dose: 300.0 mg/kg/injection, schedule: Q01DX009 (ip), vehicle: saline 115 % of control | [19] 121 % of control

O=c1[nH]c(=O)c2ccccc2o1
inactive: [1] 101 % of control | [2] 101 % of control | [3] 98 % of control

CCOC(=O)Nc1cccc([N+](=O)[O-])c1
inactive: endpoint: mean survival time, dose: 100.0 mg/kg/injection, schedule: Q01DX009 (ip), vehicle: other 98 % of control | endpoint: mean survival time, dose: 200.0 mg/kg/injection, schedule: Q01DX009 (ip), vehicle: other 113 % of control

CCCCC(CC)C(=O)[O][Pb]([CH3])([CH3])[CH3] (stereo unspecified)
inactive: endpoint: mean survival time, dose: 5.0 mg/kg/injection, schedule: Q04DX003 (ip), vehicle: saline with Tween-80 97 % of control | endpoint: mean survival time, dose: 10.0 mg/kg/injection, schedule: Q04DX003 (ip), vehicle: saline with Tween-80 98 % of control

OC1CCCC2OC12 (stereo unspecified)
inactive: [13] 93 % of control | [14] 96 % of control | [15] 93 % of control

O=C(C[n+]1ccccc1)N/N=C/c1ccccc1Cl
inactive: [4] 105 % of control

O=C1C(c2ccccc2)=C(c2ccccc2)C2=CC(c3ccccc3)=C(c3ccccc3)C(c3ccccc3)C12Br (stereo unspecified)
inactive: [5] 90 % of control | [7] 90 % of control | [9] 89 % of control

CC(N)C(=O)NC(C(=O)O)C(C)O (stereo unspecified)
inactive: endpoint: mean survival time, dose: 25.0 mg/kg/injection, schedule: Q01DX009 (ip), vehicle: saline 102 % of control | [16] 103 % of control | [17] 105 % of control | [18] 98 % of control | [19] 98 % of control
